The series deals with rodent carcinogenicity bioassays, tumor incidence. The series can be described thus: CCRIS carcinogenicity studies. In outline:
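Archive of carcinogenicity, mutagenicity, tumor promotion and tumor inhibition results drawn from journals, NCI reports and other sources, expert-reviewed; covers 1985-2011 and is no longer updated.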

This passage reports carcinogen call results from PubChem BioAssay AID1259411 (Chemical Carcinogenesis Research Information System (CCRIS), 2018).

Activity calls are given as the source filed them. How the calls were made is not given here.

For the compound `CC(C)(c1ccc(OCC2CO2)cc1)c1ccc(OCC2CO2)cc1` (stereo unspecified), the carcinogen call (Species: MOUSE, Strain/Sex: CF1/FEMALE, Route: DERMAL, Dose: 0, 1, 10% IN ACETONE 2D/WK FOR 2 YR (STUDY DURATION: 2 YR), Dose: 0, 1, 10% IN ACETONE 2D/WK FOR 2 YR (STUDY DURATION: 2 YR)) is “inactive; negative”; the carcinogen call (Species: MOUSE, Strain/Sex: CF1/MALE, Route: DERMAL, Dose: 0, 1, 10% IN ACETONE 2D/WK FOR 2 YR (STUDY DURATION: 2 YR), Dose: 0, 1, 10% IN ACETONE 2D/WK FOR 2 YR (STUDY DURATION: 2 YR)) is “inactive; negative”; the carcinogen call (Species: MOUSE, Strain/Sex: CF-1/FEMALE, Route: DERMAL, Dose: 0, 1, 10% IN ACETONE (TOTAL DOSE 0.2 ML) 2/WK APPLIED TO DORSAL SKIN FOR DURATION OF STUDY (STUDY DURATION: 2 YR), Dose: 0, 1, 10% IN ACETONE (TOTAL DOSE 0.2 ML) 2/WK APPLIED TO DORSAL SKIN FOR DURATION OF STUDY (STUDY DURATION: 2 YR)) is “inactive; negative”; the carcinogen call (Species: MOUSE, Strain/Sex: CF-1/MALE, Route: DERMAL, Dose: 0, 1, 10% IN ACETONE (TOTAL DOSE 0.2 ML) 2/WK APPLIED TO DORSAL SKIN FOR DURATION OF STUDY (STUDY DURATION: 2 YR), Dose: 0, 1, 10% IN ACETONE (TOTAL DOSE 0.2 ML) 2/WK APPLIED TO DORSAL SKIN FOR DURATION OF STUDY (STUDY DURATION: 2 YR)) was “inactive; negative”.
Regarding `Nc1ccc(N=Nc2ccccc2)c(N)n1`, the carcinogen call was “active; positive” (Species: MOUSE, Strain/Sex: B6C3F1/FEMALE, Route: ORAL, Dose: 0, 600, 1200 PPM IN DIET, Dose: 0, 600, 1200 PPM IN DIET, Tumor Site: Type of Lesion: LIVER: HEPATOCELLULAR ADENOMA OR HEPATOCELLULAR CARCINOMA); “active; positive” (Species: MOUSE, Strain/Sex: B6C3F1/MALE, Route: ORAL, Dose: 0, 600, 1200 PPM IN DIET, Dose: 0, 600, 1200 PPM IN DIET); “active; positive” (Species: RAT, Strain/Sex: F344/FEMALE, Route: ORAL, Dose: 0, 3700, 7500 PPM IN DIET, Dose: 0, 3700, 7500 PPM IN DIET, Tumor Site: Type of Lesion: COLON: ADENOCARCINOMA (NOS)); “active; positive” (Species: RAT, Strain/Sex: F344/MALE, Route: ORAL, Dose: 0, 3700, 7500 PPM IN DIET, Dose: 0, 3700, 7500 PPM IN DIET, Tumor Site: Type of Lesion: INTESTINES (COLON OR RECTUM): ADENOCARCINOMA (NOS), ADENOCARCINOMA (NOS) OR ADENOMA (NOS)).
Take `CN(C)N=Nc1ccccc1`: the carcinogen call (Species: RAT, Strain/Sex: SPRAGUE-DAWLEY/FEMALE, Route: INTRAPERITONEAL, TRANSPLACENTAL, Dose: 0, 1 MG/KG ADMINISTERED TO PREGNANT RATS ON DAY 16, 18 AND 20 OF GESTATION (STUDY DURATION: 1 YR), Tumor Site: Type of Lesion: KIDNEY: RENAL MESENCHYMAL TUMOR) is “active; positive”; the carcinogen call (Species: RAT, Strain/Sex: SPRAGUE-DAWLEY/FEMALE, Route: INTRAPERITONEAL, TRANSPLACENTAL, Dose: 0, 10, 30, 60 MG/KG ADMINISTERED TO PREGNANT RATS ON DAY 20 OF GESTATION (STUDY DURATION: 1 YR), Dose: 0, 10, 30, 60 MG/KG ADMINISTERED TO PREGNANT RATS ON DAY 20 OF GESTATION (STUDY DURATION: 1 YR)) was “inactive; negative”; the carcinogen call (Species: RAT, Strain/Sex: SPRAGUE-DAWLEY/MALE,FEMALE, Route: SUBCUTANEOUS, Dose: 50 MG/KG 1/WK FOR LIFE, Tumor Site: Type of Lesion: BRAIN, NERVOUS SYSTEM (CENTRAL)) was “active; positive”; the carcinogen call (Species: RAT, Strain/Sex: SPRAGUE-DAWLEY/MALE, Route: INTRAPERITONEAL, TRANSPLACENTAL, Dose: 0, 1 MG/KG ADMINISTERED TO PREGNANT RATS ON DAY 16, 18 AND 20 OF GESTATION (STUDY DURATION: 1 YR), Tumor Site: Type of Lesion: BRAIN: TUMOR, DENTITIOUS TISSUE: ODONTOMA) is “active; positive”; the carcinogen call (Species: RAT, Strain/Sex: SPRAGUE-DAWLEY/MALE, Route: INTRAPERITONEAL, TRANSPLACENTAL, Dose: 0, 10, 30, 60 MG/KG ADMINISTERED TO PREGNANT RATS ON DAY 20 OF GESTATION (STUDY DURATION: 1 YR), Dose: 0, 10, 30, 60 MG/KG ADMINISTERED TO PREGNANT RATS ON DAY 20 OF GESTATION (STUDY DURATION: 1 YR)) is “inactive; negative”; the carcinogen call (Species: RAT, Strain/Sex: STRAIN-BD, Route: ORAL, SUBCUTANEOUS, Dose: 24.8, 43.4 MG/KG 1/WK (MEAN TOTAL DOSE 1.5 G/KG), Tumor Site: Type of Lesion: BRAIN, NERVOUS SYSTEM) is “active; positive”.
On to `O=CN(O)c1ccc(/C=C/c2ccccc2)cc1`, for which the carcinogen call runs as follows: (Species: RAT, Strain/Sex: STRAIN-CD/FEMALE, Route: INTRAPERITONEAL, Dose: 0, 10 UMOL/KG BW 2/WK FOR 6 WK (STUDY DURATION: 62 WK), Tumor Site: Type of Lesion: LIVER: NEOPLASTIC NODULE, MAMMARY GLAND: TUMOR) “active; positive”; (Species: RAT, Strain/Sex: STRAIN-CD/MALE, Route: INTRAPERITONEAL, Dose: 0, 10 UMOL/KG BW 2/WK FOR 6 WK (STUDY DURATION: 62 WK), Tumor Site: Type of Lesion: TESTICLE: MESOTHELIOMA, PANCREAS(ACINUS): ADENOMA) “active; positive”.
